According to publication PMC11489721 (Communications Chemistry, 2024):
Where a name gives a salt, the structure may show the parent alone. Read-outs that look alike come from different tables or passages of the source.

Experiments:
bovine taste bud cells = conditions: cited from earlier work
[1] = molecular target: T1, human T1R2/T1R3 heterodimer sweet taste receptors (Homo sapiens, UniProt Q7RTX0+Q8TE23); test: FLOWER label-free binding to stabilized receptor on microtoroid
T1 sequence (Q8TE23 20-839): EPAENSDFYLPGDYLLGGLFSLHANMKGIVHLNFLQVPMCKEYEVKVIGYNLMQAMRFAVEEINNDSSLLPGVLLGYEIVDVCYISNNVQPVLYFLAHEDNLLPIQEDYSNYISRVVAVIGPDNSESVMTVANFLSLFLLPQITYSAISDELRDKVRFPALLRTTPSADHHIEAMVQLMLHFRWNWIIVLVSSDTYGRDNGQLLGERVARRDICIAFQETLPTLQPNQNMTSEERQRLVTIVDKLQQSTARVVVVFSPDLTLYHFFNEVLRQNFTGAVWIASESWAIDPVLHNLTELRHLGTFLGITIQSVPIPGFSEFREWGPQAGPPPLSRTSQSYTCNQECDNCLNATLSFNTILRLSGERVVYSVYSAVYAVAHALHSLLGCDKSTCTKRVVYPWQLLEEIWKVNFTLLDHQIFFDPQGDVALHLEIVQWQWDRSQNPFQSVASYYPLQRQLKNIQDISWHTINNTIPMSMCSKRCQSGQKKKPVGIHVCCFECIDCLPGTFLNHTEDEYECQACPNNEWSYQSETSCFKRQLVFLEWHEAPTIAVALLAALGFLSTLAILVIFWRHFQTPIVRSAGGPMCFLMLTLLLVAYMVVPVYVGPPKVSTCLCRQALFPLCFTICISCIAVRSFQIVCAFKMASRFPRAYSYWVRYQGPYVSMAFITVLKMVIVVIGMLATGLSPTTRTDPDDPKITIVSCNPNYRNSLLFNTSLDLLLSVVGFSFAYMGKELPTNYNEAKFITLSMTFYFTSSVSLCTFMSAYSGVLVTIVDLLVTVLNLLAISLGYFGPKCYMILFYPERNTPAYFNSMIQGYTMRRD
T1 sequence (Q7RTX0 21-852): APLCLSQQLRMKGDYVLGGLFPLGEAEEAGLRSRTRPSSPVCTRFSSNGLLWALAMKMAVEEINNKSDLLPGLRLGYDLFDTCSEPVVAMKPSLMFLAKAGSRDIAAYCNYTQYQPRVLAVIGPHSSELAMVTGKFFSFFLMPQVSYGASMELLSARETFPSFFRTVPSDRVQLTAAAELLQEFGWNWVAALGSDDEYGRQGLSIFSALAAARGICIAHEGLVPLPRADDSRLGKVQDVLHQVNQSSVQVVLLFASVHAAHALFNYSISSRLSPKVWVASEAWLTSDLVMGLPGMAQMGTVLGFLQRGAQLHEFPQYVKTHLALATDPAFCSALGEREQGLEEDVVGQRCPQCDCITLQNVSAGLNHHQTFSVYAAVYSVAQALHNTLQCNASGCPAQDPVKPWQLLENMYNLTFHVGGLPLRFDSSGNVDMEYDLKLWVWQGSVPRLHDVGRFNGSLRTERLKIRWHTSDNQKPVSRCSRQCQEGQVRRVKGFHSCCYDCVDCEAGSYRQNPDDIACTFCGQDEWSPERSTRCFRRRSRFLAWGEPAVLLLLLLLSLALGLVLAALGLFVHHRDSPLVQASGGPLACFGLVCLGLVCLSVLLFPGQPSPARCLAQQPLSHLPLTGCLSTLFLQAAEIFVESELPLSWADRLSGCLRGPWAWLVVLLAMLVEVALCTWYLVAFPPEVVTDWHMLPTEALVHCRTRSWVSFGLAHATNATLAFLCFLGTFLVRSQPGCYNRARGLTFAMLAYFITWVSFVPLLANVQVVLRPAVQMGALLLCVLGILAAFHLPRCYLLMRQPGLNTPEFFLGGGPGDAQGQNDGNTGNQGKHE

[2] = cited from earlier work
[3] = molecular target: T2, heterodimeric receptor (T1R2/T1R3) (Homo sapiens, UniProt Q7RTX0+Q8TE23); test: Effect of GTP and GDP on radioligand binding; conditions: for Inhibition of [3H]-Lactisole binding: radioligand [3H]-lactisole
T2 sequence (Q8TE23 20-839): T1 sequence (Q8TE23 20-839)
T2 sequence (Q7RTX0 21-852): T1 sequence (Q7RTX0 21-852)

human T1R2 = conditions: human T1R2, intrinsic fluorescence; cited from earlier work
[4] = molecular target: human T1R2/T1R3 sweet taste receptor; conditions: HEK293 stably expressing T1R2/T1R3, FLIPR calcium mobilization; cited from earlier work
[5] = system: human T1R2/T1R3 heterodimers; conditions: transiently transfected, fluorescent calcium biosensor; cited from earlier work
[6] = molecular target: extracellular amino-terminal domain (ATD) of human T1R2; conditions: circular dichroism; cited from earlier work
[7] = molecular target: T3, heterodimeric receptor (T1R2/T1R3), TMD3 binding site (Homo sapiens, UniProt Q7RTX0+Q8TE23); test: Competition binding with [3H]-lactisole as radioligand; conditions: for Competitive inhibition with lactisole: radioligand [3H]-lactisole
T3 sequence (Q8TE23 20-839): T1 sequence (Q8TE23 20-839)
T3 sequence (Q7RTX0 21-852): T1 sequence (Q7RTX0 21-852)

[8] = molecular target: T4, heterodimeric receptor (T1R2/T1R3), TMD2 binding site (Homo sapiens, UniProt Q7RTX0+Q8TE23); test: Competition binding with [3H]-Perillartine as radioligand; conditions: for Competitive inhibition with perillartine: radioligand [3H]-Perillartine; for Ki (mM): radiolabeled ligand perillartine, TMD2 binding, Table 6
T4 sequence (Q8TE23 20-839): T1 sequence (Q8TE23 20-839)
T4 sequence (Q7RTX0 21-852): T1 sequence (Q7RTX0 21-852)

[9] = molecular target: T5, heterodimeric receptor (T1R2/T1R3), presumed VFD2 binding site (Homo sapiens, UniProt Q7RTX0+Q8TE23); test: Competition binding with [3H]-Rebaudioside B as radioligand; conditions: for Competitive inhibition with RebB: radioligand [3H]-Rebaudioside B; for Ki (mM): radiolabeled ligand RebB, VFD2 binding, Table 5
T5 sequence (Q8TE23 20-839): T1 sequence (Q8TE23 20-839)
T5 sequence (Q7RTX0 21-852): T1 sequence (Q7RTX0 21-852)

[10] = molecular target: T6, heterodimeric receptor (T1R2/T1R3), presumed VFD2 site (Homo sapiens, UniProt Q7RTX0+Q8TE23); test: Kinetic binding of [3H]-Rebaudioside B, taste bud cell membranes
T6 sequence (Q8TE23 20-839): T1 sequence (Q8TE23 20-839)
T6 sequence (Q7RTX0 21-852): T1 sequence (Q7RTX0 21-852)

[11] = molecular target: human sweet taste receptor; conditions: DMR assay; cited from earlier work
[12] = molecular target: human sweet taste receptor; conditions: FLIPR assay; cited from earlier work
[13] = molecular target: T7, heterodimeric receptor (T1R2/T1R3), VFD2 and VFD3 (Homo sapiens, UniProt Q7RTX0+Q8TE23); test: Kinetic binding of [14C]-sucrose, taste bud cell membranes
T7 sequence (Q8TE23 20-839): T1 sequence (Q8TE23 20-839)
T7 sequence (Q7RTX0 21-852): T1 sequence (Q7RTX0 21-852)

[14] = molecular target: T8, heterodimeric receptor (T1R2/T1R3), TMD2 site (Homo sapiens, UniProt Q7RTX0+Q8TE23); test: Kinetic binding of [3H]-Perillartine, taste bud cell membranes
T8 sequence (Q8TE23 20-839): T1 sequence (Q8TE23 20-839)
T8 sequence (Q7RTX0 21-852): T1 sequence (Q7RTX0 21-852)

[15] = read-out: binding constant Kd, TMD3 open (+C20), 10 µM C20
[16] = read-out: binding constant Kd, TMD3 open (No C20)
[17] = from kinetic binding, ratio koff/kon

Compound: OC[C@H]1OC(O)[C@H](O)[C@@H](O)[C@@H]1O (some centres unmarked) [glucose]
- Kd (bovine taste bud cells): 3400 µM

Compound: C=C1C[C@@]23CC[C@H]4[C@@](C)(CCC[C@@]4(C)C(=O)O[C@@H]4O[C@H](CO)[C@@H](O)[C@H](O)[C@H]4O[C@@H]4O[C@H](CO)[C@@H](O)[C@H](O)[C@H]4O)[C@@H]2CC[C@]1(O[C@@H]1O[C@H](CO)[C@@H](O)[C@H](O[C@@H]2O[C@H](CO)[C@@H](O)[C@H](O)[C@H]2O)[C@H]1O[C@@H]1O[C@H](CO)[C@@H](O)[C@H](O)[C@H]1O)C3 [RebD, Rebaudioside D]
- Hill slope nH ([1]; TMD3 open (No C20)): 0.22
- Kd [1, 15]: 0.046 nM
- Kd [1, 16]: 2.8 nM
- Sweetness at 300 ppm [2]: 6.15

Compound: Rebaudioside B [RebB]
- Sweetness at 300 ppm [2]: 5.20

Compound: OC[C@H]1O[C@@](CO)(O[C@H]2O[C@H](CO)[C@@H](O)[C@H](O)[C@H]2O)[C@@H](O)[C@@H]1O [sucrose]
- Kd (bovine taste bud cells): 1100 µM

Compound: Nc1nc2c(ncn2[C@@H]2O[C@H](COP(=O)(O)OP(=O)(O)O)[C@@H](O)[C@H]2O)c(=O)[nH]1 [GDP, guanosine diphosphate]
- Inhibition of [3H]-Lactisole binding [3]: No inhibition
- IC50 ([3]; read-out: IC50, inhibition of Rebaudioside B binding, radioligand [3H]-Rebaudioside B): 2150 µM

Compound: CC1=CC(=O)NS(=O)(=O)O1 [AceK, Acesulfame K]
- Kd (human T1R2): 164 µM
- EC50 [4]: 125 µM
- EC50 [5]: 213 µM
- Kd [6]: 100 µM
- Competitive inhibition with lactisole [7]: do not compete
- Competitive inhibition with perillartine [8]: high levels of inhibition
- Competitive inhibition with RebB [9]: inhibited

Compound: C=C1C[C@@]23CC[C@H]4[C@@](C)(CCC[C@@]4(C)C(=O)O[C@@H]4O[C@H](CO)[C@@H](O)[C@H](O)[C@H]4O)[C@@H]2CC[C@]1(O[C@@H]1O[C@H](CO)[C@@H](O)[C@H](O)[C@H]1O)C3 [Rubu, Rubusoside]
- Hill slope nH ([1]; TMD2 open (No C20)): 0.36
- Hill slope nH ([1]; TMD3 open (No C20)): 0.20
- Kd ([1]; binding constant Kd, TMD2 open (No C20)): 2400 nM
- Kd ([1]; binding constant Kd, TMD3 open (+C20), 10 µM C20): 26 nM
- Kd ([1]; binding constant Kd, TMD3 open (No C20)): 3000 nM
- Sweetness at 300 ppm [2]: 3.87

Compound: [^3H]-Rebaudioside B
- kon ([10]; [3H]-Rebaudioside B radioligand, room temperature): 1.53 M⁻¹ s⁻¹
- koff ([10]; dissociation by 1000-fold excess cold Rebaudioside B at 60 min): 0.008868 s⁻¹
- Kd [10, 17]: 5800 µM

Compound: CC(C)Oc1ccc(NC(=S)NCc2ccc[nH]2)cc1 [S819, 1-((1H-pyrrol-2-yl)methyl)-3-(4-isopropoxyphenyl)thiourea]
- EC50 [11]: 0.7 µM
- EC50 [12]: 0.07 µM
- Competitive inhibition with lactisole [7]: do not compete
- Ki (mM) [8]: Ambiguous
- Competitive inhibition with perillartine [8]: did not show inhibition
- Ki (mM) [9]: Ambiguous
- Competitive inhibition with RebB [9]: did not show strong inhibition

Compound: OC[C@H]1O[C@@](CO)(O[C@H]2O[C@H](CO)[C@@H](O)[C@H](O)[C@H]2O)[C@@H](O)[C@@H]1O [[^14C]-sucrose, [^14C]-Sucrose]
- kon ([13]; [14C]-sucrose radioligand): 0.251 M⁻¹ s⁻¹
- koff ([13]; dissociation by excess cold sucrose at 60 min): 0.003105 s⁻¹
- Kd [13, 17]: 12300 µM

Compound: [^3H]-Perillartine [[^3H]-Perrilartine]
- kon ([14]; [3H]-Perillartine radioligand): 3071.47 M⁻¹ s⁻¹
- koff ([14]; dissociation by excess cold Perillartine at 60 min): 0.008895 s⁻¹
- Kd [14, 17]: 2.9 µM

Compound: N=C(N)NC(=O)c1nc(Cl)c(N)nc1N [Amiloride, amiloride HCL]
- Ki (mM) [8]: Ambiguous
- Competitive inhibition with perillartine [8]: did not show inhibition
- Ki [9]: 1350 µM
- Competitive inhibition with RebB [9]: positive inhibition

Compound: C=C(C)[C@@H]1CC=C(/C=N/O)CC1 [Perillartine]
- Kd (human T1R2): 373 µM
- EC50 [4]: 1.45 µM
- EC50 [5]: 2.54 µM

Compound: C=C1C[C@@]23CC[C@H]4[C@@](C)(CCC[C@@]4(C)C(=O)O[C@@H]4O[C@H](CO)[C@@H](O)[C@H](O[C@@H]5O[C@H](CO)[C@@H](O)[C@H](O)[C@H]5O)[C@H]4O[C@@H]4O[C@H](CO)[C@@H](O)[C@H](O)[C@H]4O)[C@@H]2CC[C@]1(O[C@@H]1O[C@H](CO)[C@@H](O)[C@H](O[C@@H]2O[C@H](CO)[C@@H](O)[C@H](O)[C@H]2O)[C@H]1O[C@@H]1O[C@H](CO)[C@@H](O)[C@H](O)[C@H]1O)C3 [RebM, Rebaudioside M]
- Hill slope nH ([1]; TMD2 open (+C20)): 0.75
- Hill slope nH ([1]; TMD2 open (No C20)): 0.30
- Hill slope nH ([1]; TMD3 open (No C20)): 0.55
- Kd ([1]; read-out: binding constant Kd, TMD2 open (+C20), 10 µM C20): 0.28 nM
- Kd [1, 15]: 2.6 nM
- Kd [1, 16]: 22 nM
- Sweetness at 300 ppm [2]: 6.55
- EC50 [4]: 29.5 µM
- Ki ([7]; radiolabeled ligand lactisole, TMD3 binding, Table 4): 11800 µM
- Competitive inhibition with lactisole [7]: positive inhibition
- Ki (mM) [8]: Ambiguous
- Ki (mM) [9]: Ambiguous
- Competitive inhibition with RebB [9]: ambiguous binding inhibition

Compound: Nc1nc2c(ncn2[C@@H]2O[C@H](COP(=O)(O)OP(=O)(O)OP(=O)(O)O)[C@@H](O)[C@H]2O)c(=O)[nH]1 [GTP, guanosine triphosphate]
- IC50 ([3]; IC50, inhibition of Rebaudioside B binding, radioligand [3H]-Rebaudioside B): 9220 µM
- IC50 ([3]; IC50, inhibition of perillartine binding, radioligand [3H]-Perillartine): 13200 µM
- Inhibition of [3H]-Lactisole binding [3]: No inhibition

Compound: C=C1C[C@@]23CC[C@H]4[C@@](C)(CCC[C@@]4(C)C(=O)O[C@@H]4O[C@H](CO)[C@@H](O)[C@H](O)[C@H]4O)[C@@H]2CC[C@]1(O[C@@H]1O[C@H](CO)[C@@H](O)[C@H](O[C@@H]2O[C@H](CO)[C@@H](O)[C@H](O)[C@H]2O)[C@H]1O[C@@H]1O[C@H](CO)[C@@H](O)[C@H](O)[C@H]1O)C3 [RebA]
- Sweetness at 300 ppm [2]: 5.90
- EC50 [11]: 57 µM
- EC50 [12]: 29 µM
- EC50 [4]: 14.4 µM
